Marks after values point to notes of the source that are not given here.
How the values were obtained:
HeLa cells = assay: Autophagic flux in HeLa cells (RFP-LC3/LAMP1, mRFP-GFP-LC3, FYVE-dsRed, immunoblot); format: cell-based
Experimental: FIG. 2 indicates the results of the Hela Cells treated with Compound of formula I (hereinafter referred to as MSL) showing the increase of the autophagic flux in the cells treated. FIG. 2A indicates the results of the experiments in which HeLa cells transfected with RFP-LC3 plasmid for 48 hrs were treated with compound MSL of the present disclosure or vehicle control for 1 hr, which were then […] with antibody against LAMP1. The arrows indicate puncta. LC3 or the number of puncta was also indicated as bar graph. FIG. 2B indicates the results of the experiments in which HeLa cells transfected with mRFP-GFP-LC3 plasmid for 48 hrs were treated with compound MSL of the present disclosure or vehicle control for 1 hr, in which autophagosome (yellow puncta) or autophagolysosome (red puncta) were measured using Image J software. The number of puncta was indicated as bar graph. FIG. 2C indicates the results of the experiments in which HeLa cells transfected with FYVE-dsRed plasmid for 48 hrs were treated with compound MSL of the present disclosure or vehicle control for 1 hr, in which the number of FYVE-dsRed vesicles was measured. The measured value were average of the values obtained from at least 3 images. Error bars, S.D. **, P<0.01; ***, P<0.001.
FIG. 10 is the result of the experiments using compound of formula 2 (hereinafter referred to as MSL-7) of the present disclosure as an autophagic enhancer. FIG. 10A is the result of immuneblot using the antibodies indicated using Hela cells treated with MSL or MSL-7. FIG. 10B is the result of measuring the viability of Hela cells treated with vehicle control or various concentration of MSL-7 (50-100 μM) for 48 hrs. FIG. 10C is the result of DAPI stained nuclei of TFEB-GFP HeLa cells which were treated with vehicle control or MSL-7 for 4 hrs. The graph indicates the percentage of TFEB translocated into the nuclei. Error bars, S.D. *, P<0.05; **, P<0.01; ***, P<0.001.
FIG. 12 indicates the improvement of the metabolic profile of HFD-feed mice by MSL-7: (FIG. 12A) Confocal microscopic result of HeLa cells transfected with tandem mRFP-GFP-LC3 and treated with MSL-7 in which red puncta indicates autophagolysosome. (FIG. 12B, 12C) 8 week old male C57BL/6 mice were fed with HFD or normal chow diet (NCD) for 8 weeks, and then 50 mg/kg MSL-7 was administered three times a week for 8 weeks. Non-fasting glucose level (FIG. 12B) and body weight (FIG. 12C) were monitored. (FIG. 12D) IPGTT. (FIG. 12E) AUC curve of (FIG. 12D). (FIG. 12F) ITT. (FIG. 12G) AUC curve of (FIG. 12F).
Screening of autophagy enhancer. […] Luciferase assay. Firefly and Renilla luciferase assays were conducted using the Dual-Luciferase Reporter Assay System (Promega) according to the manufacturer's recommendation. In brief, cells were lysed in 1× lysis buffer and subjected to a single round of freezing/thawing. Firefly luciferase was determined after mixing 5 μl of lysate with 25 μl of Luciferase Assay Reagent II. Renilla luciferase was then determined after further addition of 20 ul of Stop&Glo Reagent. Cell culture and media and drugs treatment. […]

ob/ob mice = assay: Toxicity: hemogram, blood chemistry and organ biopsy in ob/ob mice; format: in vivo; parameters: BUN: unit not given here; conditions: for level of liver enzymes: 8-week treatment; for CBC / fatty liver (major organ biopsy) / tissue histology of major organs (heart, kidney, muscle, spleen, lung, pancreas): 8 weeks; for tissue histology of major organs (heart, kidney, muscle, spleen, lung, pancreas): biopsy; for ALB / ALP / ALT / AST / BUN / CA / CPK / CRE / DBIL / GGT / LDH / TCHO / TG: blood chemistry; for BASO / EOS / MONO / NEU / LYM / WBC / RBC / HGB / HCT / PLT: hemogram; for BASO / EOS: normal range 0.0-0.2; for MONO: normal range 0.0-0.4; for NEU: normal range 0.1-2.4; for LYM: normal range 0.9-9.3; for WBC: normal range 1.8-10.7; for RBC: normal range 6.36-9.42; for HGB: normal range 11.0-15.1; for HCT: normal range 38.5-59.0; for PLT: normal range 592-2972
Experimental: Organs were harvested from ob/ob mice administered with MSL or MSL-7 for 8 weeks and stained with H&E for histological analysis. […] Other than that, no significant changes were observed (Scale Bar. 500 μm). […]
Finally, we studied whether MSL or MSL-7 has systemic toxicity. CBC was not changed by MSL or MSL-7 (Table 1).
Finally, in the present disclosure, the toxicity of the present enhancers were tested. The 8-week treatment of MSL or MSL-7 improved the metabolic profile, and reduced the level of liver enzymes (Table 1 below). […] In the major organ biopsy, there were found no side effects. Rather the fatty liver was improved (FIG. 14).
Table 1 indicates the hemogram and blood chemistry analyzed after administration of the present autophagy enhancer for 8 week in vivo. […] Other than that, there are no adverse changes were found.

Row | Structure (SMILES) | level of liver enzymes (ob/ob mice) | CBC (ob/ob mice) | fatty liver (major organ biopsy) (ob/ob mice) | tissue histology of major organs (heart, kidney, muscle, spleen, lung, pancreas) (ob/ob mice) | ALB (ob/ob mice; 8 week) | ALP (ob/ob mice; 8 week) | ALT (ob/ob mice; 8 week) | AST (ob/ob mice; 8 week) | BUN (ob/ob mice; 8 week) | CA (ob/ob mice; 8 week) | CPK (ob/ob mice; 8 week) | CRE (ob/ob mice; 8 week) | DBIL (ob/ob mice; 8 week) | GGT (ob/ob mice; 8 week) | LDH (ob/ob mice; 8 week) | TCHO (ob/ob mice; 8 week) | TG (ob/ob mice; 8 week) | BASO (ob/ob mice; 8 week) | EOS (ob/ob mice; 8 week) | MONO (ob/ob mice; 8 week) | also measured
1 | COc1oc(-c2ccccc2Cl)nc1S(=O)(=O)c1ccccc1 [MSL-7, 2-(2-chlorophenyl)-5-methoxy-4-(phenylsulfonyl) oxazole] | reduced | not changed | improved | no significant alteration | 1.1 ± 1.0 g/dL | 278 ± 26.11^b U/L | 146.9 ± 21.59^b U/L | 153.8 ± 12.81^b U/L | 20 ± 0.89 | 10.75 ± 0.32 mg/dL | 241.3 ± 18.19 U/L | 1 ± 0 mg/dL | <0.5 mg/dL | <5 U/L | 810 ± 112.40^c U/L | 136.9 ± 9.73 mg/dL | 78.6 ± 22.50^b mg/dL | 0.01 ± 0.01 K/μL | 0.04 ± 0.01 K/μL | 0.28 ± 0.05 K/μL | autophagy-enhancing activity (HeLa cells; immunoblot, FIG. 10A): definite autophagy-enhancing activity; formation of autophagolysosome (HeLa cells; mRFP-GFP-LC3, red puncta): induced; serum TG level and LDH level compared to MSL (ob/ob mice; 8 week): significantly lower; NEU (ob/ob mice; 8 week): 1.97 ± 0.16 K/μL; LYM (ob/ob mice; 8 week): 3.97 ± 0.38 K/μL; WBC (ob/ob mice; 8 week): 6.26 ± 0.52 K/μL; RBC (ob/ob mice; 8 week): 9.22 ± 0.12 M/μL; HGB (ob/ob mice; 8 week): 13.60 ± 0.19 g/dL; HCT (ob/ob mice; 8 week): 49.25 ± 0.78%; PLT (ob/ob mice; 8 week): 1031 ± 55 K/μL
2 | CSc1oc(-c2ccccc2)nc1S(=O)(=O)c1ccc(F)cc1 [MSL] | reduced | not changed | improved | no significant alteration | 1.1 ± 0.10 g/dL | 267 ± 35.02^b U/L | 183.7 ± 35.71^b U/L | 158.1 ± 16.39^c U/L | 21.13 ± 1.38 | 11.13 ± 0.24 mg/dL | 323.8 ± 29.68 U/L | 0.75 ± 0.14 mg/dL | <0.5 mg/dL | <5 U/L | 1428 ± 148.90^b U/L | 150 ± 12.22 mg/dL | 13.9 ± 16.41^a mg/dL | 0.05 ± 0.01 K/μL | 0.165 ± 0.06 K/μL | 0.35 ± 0.109 K/μL | Recruitment of FYVE-dsRed+ vesicle (HeLa cells; 1 hr): increased; LC3+ autophagosome colocalization with lysosomal marker LAMP1 (HeLa cells; RFP-LC3 transfected, 1 hr): positive for the lysosomal markers LAMP1; number of yellow puncta (early autophagic organelles) and red puncta (autolysosomes) (HeLa cells; mRFP-GFP-LC3B probe, 1 hr): increases; NEU (ob/ob mice; 8 week): 2.34 ± 0.51 K/μL; LYM (ob/ob mice; 8 week): 4.73 ± 0.95 K/μL; WBC (ob/ob mice; 8 week): 7.64 ± 1.54 K/μL; RBC (ob/ob mice; 8 week): 8.82 ± 0.54 M/μL; HGB (ob/ob mice; 8 week): 14.30 ± 0.56 g/dL; HCT (ob/ob mice; 8 week): 46.9 ± 2.4%; PLT (ob/ob mice; 8 week): 1081 ± 61 K/μL

Source: US10881642B2, “Autophagy enhancer and use thereof” (Industry-Academic Cooperation Foundation, Yonsei University, priority 2016, dated 2021)
